Assay results reported in ChEMBL document CHEMBL4177586, “Small molecule adjuvants that suppress both chromosomal and mcr-1 encoded colistin-resistance and amplify colistin efficacy in polymyxin-susceptible bacteria” (Bioorg Med Chem, 2017).

Columns and labels:
[1] = system: Acinetobacter baumannii; experiment: Antimicrobial activity against Acinetobacter baumannii ATCC 17978 incubated for overnight duration by CLSI based method; type: functional, organism-based
[2] = system: Acinetobacter baumannii; experiment: Antimicrobial activity against Acinetobacter baumannii SM1536 incubated for overnight duration by CLSI based method; type: functional, organism-based
[3] = system: Escherichia coli; experiment: Antimicrobial activity against Escherichia coli ATCC 25922 incubated for overnight duration by CLSI based method; type: functional, organism-based
[4] = system: Escherichia coli; experiment: Antimicrobial activity against Escherichia coli YD626 incubated for overnight duration by CLSI based method; type: functional, organism-based
[5] = system: Klebsiella pneumoniae; experiment: Antimicrobial activity against Klebsiella pneumoniae 2210291 incubated for overnight duration by CLSI based method; type: functional, organism-based
[6] = system: Acinetobacter baumannii; experiment: Antimicrobial activity against Acinetobacter baumannii ATCC 17978 expressing mcr1 gene incubated for overnight duration by CLSI based method; type: functional, organism-based
[7] = system: Acinetobacter baumannii; experiment: Antimicrobial activity against Acinetobacter baumannii SM1536 expressing mcr1 gene incubated for overnight duration by CLSI based method; type: functional, organism-based
[8] = system: Escherichia coli; experiment: Antimicrobial activity against Escherichia coli ATCC 25922 expressing mcr1 gene incubated for overnight duration by CLSI based method; type: functional, organism-based
[9] = system: Escherichia coli; experiment: Antimicrobial activity against Escherichia coli YD626 expressing mcr1 gene incubated for overnight duration by CLSI based method; type: functional, organism-based
[10] = system: Klebsiella pneumoniae; experiment: Antimicrobial activity against Klebsiella pneumoniae 2210291 expressing mcr1 gene incubated for overnight duration by CLSI based method; type: functional, organism-based
[11] = system: Acinetobacter baumannii; experiment: Potentiation of colistin-induced antimicrobial activity against Acinetobacter baumannii ATCC 17978 expressing mcr1 gene assessed as reduction in colistin MIC at 60 uM incubated for overnight duration by CLSI based method relative to colistin alone control; type: functional

MIC [1] [µg/mL] | MIC [2] [µg/mL] | MIC [3] [µg/mL] | MIC [4] [µg/mL] | MIC [5] [µg/mL] | MIC [6] [µg/mL] | MIC [7] [µg/mL] | MIC [8] [µg/mL] | MIC [9] [µg/mL] | MIC [10] [µg/mL] | Compound | fold change (FC) [11]
2 | 2 | 1 | 1 | 1 | 16 | 64 | 8 | 4 | 16 | COLISTIN | –
– | – | – | – | – | – | – | – | – | – | O=C(NCCc1c[nH]c2ccccc12)c1cc(Cl)c(Cl)[nH]1 | 32
